IC50 data for 13 compounds are collected here from patent US10821115B2, “Compounds that inhibit Mcl-1 protein” (priority 2017, dated 2020).

Test [1] has as its target recombinant human Mcl-1 (residues 171-327) / Bim interaction (Homo sapiens (Human), UniProt Q07820). The test can be described thus: biochemical. In kind it is binding. The following applies: read-out: Mcl-1 HTRF IC50. Background: In TR-FRET formats the signal depends on donor and acceptor labels being close together.
In test [2] the test system is human multiple myeloma cell line, OPM-2. The test is described as follows: Cell viability assay (OPM-2 10 FBS), CellTiter-Glo. Type of test: cell-based. The following applies: Homo sapiens, OPM-2, 16 h. Put shortly: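 3000 cells/well, RPMI 1640 + 10% FBS; serial compound dilutions, 16 h, 37 °C/5% CO2.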
[3] abbreviates: TR-FRET, Mcl-1(171-327) / biotin-Bim (51-76).
[4] abbreviates: read-out: OPM-2 10% FBS IC50 IP, OPM-2 cells, 10% FBS, 16 h, CellTiter-Glo.
[5] abbreviates: 0.1 nM Mcl-1(171-327), 0.05 nM biotin-Bim (51-76).
[6] abbreviates: read-out: OPM-2 10% FBS IC50 IP, OPM-2 cells, 10% FBS, 16 h incubation.

Like-named read-outs stand apart in the source and are kept apart here.

Broadly, the IC50 is the concentration needed to halve the response being measured.

Sequence of recombinant human Mcl-1 (residues 171-327) / Bim interaction (Q07820 171-327): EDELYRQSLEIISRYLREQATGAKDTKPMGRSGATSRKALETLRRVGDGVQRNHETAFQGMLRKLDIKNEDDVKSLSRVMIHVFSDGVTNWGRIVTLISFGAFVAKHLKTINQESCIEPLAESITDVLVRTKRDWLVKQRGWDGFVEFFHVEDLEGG

`C[C@@H]1[C@@H](C)C/C=C/[C@@](O)(COS(C)(=O)=O)[C@@H]2CC[C@H]2CN2C[C@@]3(CCCc4cc(Cl)ccc43)COc3ccc(cc32)C(=O)NS1(=O)=O` [Example 100335, ((1S,3′R,6′R,7′S,8′E,11′S,12′R)-6-chloro-7′-hydroxy-11′,12′-dimethyl-13′,13′-dioxido-15′-oxo-3,4-dihydro-2H-spiro[naphthalene-1,22′-[20]oxa[13]thia[1,14]diazatetracyclo [14.7.2.0~3,6~.0~19,24~]pentacosa[8,16,18,24]tetraen]-7′-yl)methyl methanesulfonate]: the IC50 is 0.319 nM in test [1] (setting [3]) and 165 nM in test [2] (setting [4]).
With `CO[C@@]1(CN2CC3(COC3)C2)/C=C/C[C@H](C)[C@@H](C)S(=O)(=O)NC(=O)c2ccc3c(c2)N(C[C@@H]2CC[C@H]21)C[C@@]1(CCCc2cc(Cl)ccc21)CO3` [Example 203, (1S,3′R,6′R,7′S,8′E,11′S,12′R)-6-chloro-7′-methoxy-11′,12′-dimethyl-7′-(2-oxa-6-azaspiro[3.3]hept-6-ylmethyl)-3,4-dihydro-2H,15′H-spiro[naphthalene-1,22′-[20]oxa[13]thia[1,14]diazatetracyclo [14.7.2.0~3,6~.0~19,24~]pentacosa[8,16,18,24]tetraen]-15′-one 13′,13′-dioxide], the results for the IC50 in test [1] (setting [5]) and in test [2] (setting [6]) were 0.113 nM and 112 nM, respectively.
`CC[C@@H]1CCCC[C@@](COC)(OC)[C@@H]2CC[C@H]2CN2C[C@@]3(CCCc4cc(Cl)ccc43)COc3ccc(cc32)C(=O)NS1(=O)=O` [Example 100038, (1S,3′R,6′R,7′R,12′R)-6-chloro-12′-ethyl-7′-methoxy-7′-(methoxymethyl)-3,4-dihydro-2H,15′H-spiro[naphthalene-1,22′-[20]oxa[13]thia[1,14]diazatetracyclo [14.7.2.0~3,6~.0~19,24~]pentacosa[16,18,24]trien]-15′-one 13′,13′-dioxide]: the values for the IC50 in test [1] (setting [3]) and in test [2] (setting [4]) were 1.66 nM and 2560 nM, respectively.
With `CO[C@@]1(CC(=O)C(C)C)/C=C/C[C@H](C)[C@@H](C)S(=O)(=O)NC(=O)c2ccc3c(c2)N(C[C@@H]2CC[C@H]21)C[C@@]1(CCCc2cc(Cl)ccc21)CO3` [Example 100373, (1S,3′R,6′R,7′S,8′E,11′S,12′R)-6-chloro-7′-methoxy-11′,12′-dimethyl-7′-(3-methyl-2-oxobutyl)-3,4-dihydro-2H,15′H-spiro[naphthalene-1,22′-[20]oxa[13]thia[1,14]diazatetracyclo [14.7.2.0~3,6~.0~19,24~]pentacosa[8,16,18,24]tetraen]-15′-one 13′,13′-dioxide], the IC50 came out at 0.318 nM in test [1] and 736 nM in test [2] (setting [4]).
As for `C[C@@H]1[C@@H](C)C/C=C/[C@@](O)(c2ccncc2F)[C@@H]2CC[C@H]2CN2C[C@@]3(CCCc4cc(Cl)ccc43)COc3ccc(cc32)C(=O)NS1(=O)=O` (single isomer, unassigned) [Example 100370], the IC50 in test [1] (setting [3]) came to 0.153 nM; in test [2] (setting [4]), 258 nM.
On to `CO[C@]1(CN2CCN3CCOC[C@H]3C2)/C=C/C[C@H](C)[C@@H](C)S(=O)(=O)NC(=O)c2ccc3c(c2)N(C[C@@H]2CC[C@H]21)C[C@@]1(CCCc2cc(Cl)ccc21)CO3` [Example 58, (1S,3′R,6′R,7′R,8′E,11′S,12′R)-6-chloro-7′-((9aR)-hexahydropyrazino[2,1-c][1,4]oxazin-8(1H)-ylmethyl)-7′-methoxy-11′,12′-dimethyl-3,4-dihydro-2H,15′H-spiro[naphthalene-1,22′-[20]oxa[13]thia[1,14]diazatetracyclo [14.7.2.0~3,6~.0~19,24~]pentacosa[8,16,18,24]tetraen]-15′-one 13′,13′-dioxide], for which the IC50 in test [1] (setting [5]) came to 0.719 nM; in test [2] (setting [6]) it was 95 nM.
Turning to `COCC[C@@H]1[C@@H](C)C/C=C/[C@@](CN2CCN(C(C)(C)C)CC2)(OC)[C@@H]2CC[C@H]2CN2C[C@@]3(CCCc4cc(Cl)ccc43)COc3ccc(cc32)C(=O)NS1(=O)=O` [Example 189, (1S,3′R,6′R,7′R,8′E,11′S,12′R)-7′-((4-tert-butyl-1-piperazinyl)methyl)-6-chloro-7′-methoxy-12′-(2-methoxyethyl)-11′-methyl-3,4-dihydro-2H,15′H-spiro[naphthalene-1,22′-[20]oxa[13]thia[1,14]diazatetracyclo [14.7.2.0~3,6~.0~19,24~]pentacosa[8,16,18,24]tetraen]-15′-one 13′,13′-dioxide], the IC50 worked out at 0.084 nM in test [1] (setting [5]) and 33 nM in test [2] (setting [6]).
Take `CO[C@@]1(CN2CC(CO)(CO)C2)/C=C/C[C@H](C)[C@@H](C)S(=O)(=O)NC(=O)c2ccc3c(c2)N(C[C@@H]2CC[C@H]21)C[C@@]1(CCCc2cc(Cl)ccc21)CO3` [Example 206, (1S,3′R,6′R,7′S,8′E,11′S,12′R)-7′-((3,3-bis(hydroxymethyl)-1-azetidinyl)methyl)-6-chloro-7′-methoxy-11′,12′-dimethyl-3,4-dihydro-2H,15′H-spiro[naphthalene-1,22′-[20]oxa[13]thia[1,14]diazatetracyclo [14.7.2.0~3,6~.0~19,24~]pentacosa[8,16,18,24]tetraen]-15′-one 13′,13′-dioxide]: the IC50 in test [1] (setting [5]) came to 0.223 nM; in test [2] (setting [6]) it was 6300 nM.
For the compound `CO[C@@]1(C(F)F)/C=C/C[C@H](C)[C@@H](C)S(=O)(=O)NC(=O)c2ccc3c(c2)N(C[C@@H]2CC[C@H]21)C[C@@]1(CCCc2cc(Cl)ccc21)CO3` [Example 100071, (1S,3′R,6′R,7′S,8′E,11′S,12′R)-6-chloro-7′-(difluoromethyl)-7′-methoxy-11′,12′-dimethyl-3,4-dihydro-2H,15′H-spiro[naphthalene-1,22′-[20]oxa[13]thia[1,14]diazatetracyclo [14.7.2.0~3,6~.0~19,24~]pentacosa[8,16,18,24]tetraen]-15′-one 13′,13′-dioxide], the IC50 turned out to be 1.54 nM in test [1] (setting [3]) and 588 nM in test [2] (setting [4]).
For `C=CC[C@@]1(O)/C=C/C[C@H](C)[C@@H](C)S(=O)(=O)NC(=O)c2ccc3c(c2)N(C[C@@H]2CC[C@H]21)C[C@@]1(CCCc2cc(Cl)ccc21)CO3` (single isomer, unassigned) [Example 100131], in that order: 0.163 nM and 144 nM.
For `C[C@@H]1[C@@H](C)C[C@@H](N(C)C)C[C@](C)(O)[C@@H]2CC[C@H]2CN2C[C@@]3(CCCc4cc(Cl)ccc43)COc3ccc(cc32)C(=O)NS1(=O)=O` [Example 100063, (1S,3′R,6′R,7′S,9′R,11′S,12′R)-6-chloro-9′-(dimethylamino)-7′-hydroxy-7′,11′,12′-trimethyl-3,4-dihydro-2H,15′H-spiro[naphthalene-1,22′-[20]oxa[13]thia[1,14]diazatetracyclo [14.7.2.0~3,6~.0~19,24~]pentacosa[16,18,24]trien]-15′-one 13′,13′-dioxide], the values for the IC50 in test [1] (setting [3]) and in test [2] (setting [4]) were 2.32 nM and 2260 nM, respectively.
For `C[C@@H]1[C@@H](C)C/C=C/[C@@](O)(c2cnccc2F)[C@@H]2CC[C@H]2CN2C[C@@]3(CCCc4cc(Cl)ccc43)COc3ccc(cc32)C(=O)NS1(=O)=O` (single isomer, unassigned) [Example 100536], the figures for the IC50 in test [1] (setting [3]) and in test [2] (setting [4]) were 0.204 nM and 826 nM, respectively.
For the compound `CO[C@@]1(CN2CCc3cncnc3C2)/C=C/C[C@H](C)[C@@H](C)S(=O)(=O)NC(=O)c2ccc3c(c2)N(C[C@@H]2CC[C@H]21)C[C@@]1(CCCc2cc(Cl)ccc21)CO3` [Example 211], the IC50 in test [1] (setting [5]) was found to be 0.147 nM; in test [2] (setting [6]), 156 nM.
